Values belong to the compound of their own block, whether it stands above or below them.
Experiments:
[1] = Inhibition of NADPH oxidase in Homo sapiens (human) HUVEC cells; type: cell-based
[2] = target: Acetylcholinesterase (Homo sapiens, UniProt P22303); test: Inhibition of AChE (unknown origin)
[3] = target: Glycogen synthase kinase-3 beta (Homo sapiens, UniProt P49841); test: Inhibition of Homo sapiens (human) recombinant GSK3beta after 30 min by Kinase-Glo assay
[4] = target: Beta-secretase 1 (Homo sapiens, UniProt P56817); test: Inhibition of BACE1 (unknown origin)
[5] = target: Cholinesterase (Homo sapiens, UniProt P06276); test: Inhibition of BuChE (unknown origin)
Sequence of Cholinesterase (P06276 whole entry): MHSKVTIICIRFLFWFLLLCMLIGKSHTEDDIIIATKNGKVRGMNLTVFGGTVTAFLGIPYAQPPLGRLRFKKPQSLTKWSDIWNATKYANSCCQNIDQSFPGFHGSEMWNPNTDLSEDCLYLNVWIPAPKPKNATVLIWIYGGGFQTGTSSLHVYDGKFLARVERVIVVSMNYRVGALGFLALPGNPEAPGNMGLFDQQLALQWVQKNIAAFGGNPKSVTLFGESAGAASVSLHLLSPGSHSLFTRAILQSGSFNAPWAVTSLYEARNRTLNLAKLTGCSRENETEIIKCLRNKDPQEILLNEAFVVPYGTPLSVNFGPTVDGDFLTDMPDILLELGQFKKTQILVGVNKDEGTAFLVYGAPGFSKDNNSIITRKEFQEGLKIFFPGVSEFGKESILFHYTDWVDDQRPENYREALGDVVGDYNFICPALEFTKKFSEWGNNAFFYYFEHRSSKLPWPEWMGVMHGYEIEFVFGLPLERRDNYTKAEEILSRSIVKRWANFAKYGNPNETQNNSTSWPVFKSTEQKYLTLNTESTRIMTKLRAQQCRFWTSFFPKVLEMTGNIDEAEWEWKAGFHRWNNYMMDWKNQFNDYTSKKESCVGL

Sequence of Beta-secretase 1 (P56817 whole entry): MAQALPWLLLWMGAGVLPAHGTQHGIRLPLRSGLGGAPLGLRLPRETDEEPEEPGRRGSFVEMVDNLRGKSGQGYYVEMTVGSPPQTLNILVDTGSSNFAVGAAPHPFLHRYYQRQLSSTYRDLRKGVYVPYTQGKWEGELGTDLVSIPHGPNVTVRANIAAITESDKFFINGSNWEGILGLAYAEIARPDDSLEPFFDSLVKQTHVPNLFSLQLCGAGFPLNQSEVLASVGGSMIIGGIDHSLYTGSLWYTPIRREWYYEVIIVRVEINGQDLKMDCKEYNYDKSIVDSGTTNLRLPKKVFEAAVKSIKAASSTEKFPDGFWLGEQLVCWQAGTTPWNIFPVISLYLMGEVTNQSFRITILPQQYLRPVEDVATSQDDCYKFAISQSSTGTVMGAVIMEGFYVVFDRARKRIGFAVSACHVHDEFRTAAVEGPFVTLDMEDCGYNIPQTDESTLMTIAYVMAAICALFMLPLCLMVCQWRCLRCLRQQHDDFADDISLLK
Sequence of Acetylcholinesterase (P22303 whole entry): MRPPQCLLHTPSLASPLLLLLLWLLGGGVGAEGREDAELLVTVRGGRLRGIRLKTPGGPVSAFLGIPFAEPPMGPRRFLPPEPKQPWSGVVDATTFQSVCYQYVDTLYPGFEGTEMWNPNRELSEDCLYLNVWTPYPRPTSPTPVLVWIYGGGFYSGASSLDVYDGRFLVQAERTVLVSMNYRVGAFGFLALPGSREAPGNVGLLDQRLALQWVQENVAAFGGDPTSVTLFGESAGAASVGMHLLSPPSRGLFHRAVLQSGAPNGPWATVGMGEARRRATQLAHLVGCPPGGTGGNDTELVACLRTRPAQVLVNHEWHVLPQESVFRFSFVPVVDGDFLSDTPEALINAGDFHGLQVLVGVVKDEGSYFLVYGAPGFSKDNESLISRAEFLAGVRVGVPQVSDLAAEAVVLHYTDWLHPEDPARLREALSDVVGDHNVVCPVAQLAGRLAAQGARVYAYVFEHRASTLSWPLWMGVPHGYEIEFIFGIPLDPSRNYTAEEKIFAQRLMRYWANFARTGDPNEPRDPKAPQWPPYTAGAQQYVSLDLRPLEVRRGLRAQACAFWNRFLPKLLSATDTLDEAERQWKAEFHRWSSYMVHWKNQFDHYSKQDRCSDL
Sequence of Glycogen synthase kinase-3 beta (P49841 whole entry): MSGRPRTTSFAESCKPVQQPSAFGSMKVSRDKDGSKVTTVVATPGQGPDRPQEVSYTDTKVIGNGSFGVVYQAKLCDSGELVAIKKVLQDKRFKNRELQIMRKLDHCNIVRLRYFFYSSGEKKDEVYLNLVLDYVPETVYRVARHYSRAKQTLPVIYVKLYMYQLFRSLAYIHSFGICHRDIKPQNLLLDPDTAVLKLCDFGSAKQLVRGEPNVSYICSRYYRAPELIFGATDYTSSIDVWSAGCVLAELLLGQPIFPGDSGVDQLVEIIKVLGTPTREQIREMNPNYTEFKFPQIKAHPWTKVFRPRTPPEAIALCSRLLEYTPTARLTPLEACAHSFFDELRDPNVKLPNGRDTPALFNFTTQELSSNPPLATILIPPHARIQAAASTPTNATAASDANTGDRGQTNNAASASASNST

Compound: COc1cc(-c2oc3cc(O)cc(O)c3c(=O)c2O)ccc1O [ISORHAMNETIN]
- IC50 [1]: 2.8 µM

Compound: COc1cc2occ(-c3ccc(N4CCCC4)cc3)c(=O)c2cc1OC
- IC50 [2]: 1.63 µM

- IC50 [3]: 26.9 µM
Compound: COc1ccc([C@@H]2CC(=O)c3c(O)cc(O)cc3O2)cc1O [HESPERETIN]

Compound: O=c1c(O)c(-c2ccc(O)c(O)c2)oc2cc(O)ccc12 [FISETIN]
- IC50 [2]: 0.012 µM

- IC50 [4]: 14.7 µM
- IC50 [1]: 10 µM
Compound: O=c1c(O)c(-c2ccc(O)cc2)oc2cc(O)cc(O)c12 [KAEMPFEROL]

Compound: O=c1c(OC2O[C@H](CO)[C@H](O)[C@H](O)[C@H]2O)c(-c2ccc(O)cc2)oc2cc(O)cc(O)c12 (stereo partly drawn) [KAEMPFEROL 3-O-D-GALACTOSIDE]
- IC50 [2]: 0.012 µM

- IC50 [1]: 12 µM
Compound: O=C1c2c(O)cc(O)cc2O[C@H](c2ccc(O)c(O)c2)[C@H]1O [(+)-TAXIFOLIN]

Compound: CC(C)=CCc1c(-c2ccc(O)cc2O)oc2c(CC=C(C)C)c(O)cc(O)c2c1=O [KUWANON C]
- IC50 [5]: 1.7 µM
- Ki [2]: 3.1 µM

Compound: O=c1c(O)c(-c2ccc(O)c(O)c2)oc2cc(O)cc(O)c12 [QUERCETIN]
- IC50 [5]: 421 µM
- IC50 [1]: > 100 µM
- IC50 [2]: 354 µM
- IC50 [3]: 2 µM

Compound: CC(C)=CCC/C(C)=C/Cc1cc(C2CC(=O)c3c(O)cc(O)cc3O2)c(O)cc1O (configuration not stated) [KUWANON E]
- IC50 [5]: 1.7 µM
- Ki [2]: 3.1 µM

Compound: Oc1cc(O)c2c(c1)O[C@H](c1cc(O)c(O)c(O)c1)[C@H](O)C2 [EPIGALLOCATECHIN]
- IC50 [1]: 8 µM

- IC50 [1]: 7.5 µM
Compound: OCCc1ccc(O)cc1 [TYROSOL]

Compound: OCCc1ccc(O)c(O)c1 [HYDROXYTYROSOL]
- IC50 [1]: 7.5 µM

Compound: COc1cc(O)c(-c2cc(=O)c3c(O)cc(O)cc3o2)cc1C/C=C(\C)CCC=C(C)C
- IC50 [5]: 11 µM
- Ki [5]: 1.74 µM
- IC50 [2]: 11 µM
- Ki [2]: 3.1 µM

- IC50 [1]: 3.8 µM
Compound: Oc1cc(O)c2c(c1)O[C@H](c1ccc(O)c(O)c1)[C@H](O)[C@H]2c1c(O)cc(O)c2c1O[C@H](c1ccc(O)c(O)c1)[C@H](O)C2 [PROCYANIDIN B2]

Compound: O=c1cc(-c2ccc(O)c(O)c2)oc2cc(O)cc(O)c12 [LUTEOLIN]
- IC50 [3]: 1.5 µM

Compound: COc1cc(O)c(C2CC(=O)c3c(O)cc(O)cc3O2)cc1C/C=C(\C)CCC=C(C)C (configuration not stated) [KUWANONU]
- IC50 [5]: 1.7 µM
- Ki [2]: 3.1 µM

Compound: C[C@@H]1O[C@@H](OC[C@H]2O[C@@H](Oc3c(-c4ccc(O)c(O)c4)oc4cc(O)cc(O)c4c3=O)[C@H](O)[C@@H](O)[C@@H]2O)[C@H](O)[C@H](O)[C@H]1O [RUTIN]
- IC50 [2]: 0.012 µM

Compound: O=c1c(O)c(-c2cc(O)c(O)c(O)c2)oc2cc(O)cc(O)c12 [MYRICETIN]
- IC50 [4]: 2.8 µM
- IC50 [2]: 0.012 µM

Compound: CC(C)=CC1Oc2cc(O)ccc2-c2oc3c4c(cc(O)c3c(=O)c21)OC(C)(C)C=C4 (configuration not stated) [CYCLOMORUSIN]
- IC50 [5]: 1.7 µM
- Ki [2]: 3.1 µM

- IC50 [3]: 100 µM
Compound: COc1ccc([C@@H]2CC(=O)c3c(O)cc(O[C@@H]4O[C@H](CO[C@@H]5O[C@@H](C)[C@H](O)[C@@H](O)[C@H]5O)[C@@H](O)[C@H](O)[C@H]4O)cc3O2)cc1O [HESPERIDIN]

- IC50 [1]: 7.9 µM
Compound: COc1cc([C@H]2Oc3cc(O)cc(O)c3C[C@H]2O)ccc1O [3'-O-METHYL EPICATECHIN]

Compound: COc1cc2occ(-c3ccc(OC4CCN(Cc5ccccc5)CC4)cc3)c(=O)c2cc1OC
- IC50 [2]: 0.093 µM

Compound: CC1(C)C=Cc2c(cc(O)c3c(=O)c4c(oc23)-c2ccc(O)cc2OC(C(C)(C)O)C4)O1 (configuration not stated) [NEOCYCLOMORUSIN]
- IC50 [5]: 1.7 µM
- Ki [2]: 3.1 µM

Compound: CC(C)=CCC/C(C)=C/Cc1cc(-c2cc(=O)c3c(O)cc(O)cc3o2)c(O)cc1O
- IC50 [5]: 16.2 µM
- IC50 [2]: 16.2 µM
- Ki [2]: 3.1 µM

- IC50 [1]: > 100 µM
Compound: Oc1cc(O)c2c(c1)O[C@H](c1ccc(O)c(O)c1)[C@H](O)C2 [(-)-EPICATECHIN]

- IC50 [4]: 21.7 µM
Compound: O=c1c(O)c(-c2ccc(O)cc2O)oc2cc(O)cc(O)c12 [MORIN]

- IC50 [3]: 100 µM
Compound: C[C@@H]1O[C@@H](O[C@H]2[C@H](Oc3cc(O)c4c(c3)O[C@H](c3ccc(O)cc3)CC4=O)O[C@H](CO)[C@@H](O)[C@@H]2O)[C@H](O)[C@H](O)[C@H]1O [NARINGIN]

Compound: CC(C)=CCc1c(-c2ccc(O)cc2O)oc2c3c(cc(O)c2c1=O)OC(C)(C)C=C3 [MORUSIN]
- IC50 [5]: 1.7 µM
- Ki [2]: 3.1 µM

Compound: O=c1c(O)c(-c2ccccc2)oc2cc(O)cc(O)c12 [GALANGIN]
- IC50 [2]: 0.012 µM

Compound: O=C1C[C@@H](c2ccc(O)cc2)Oc2cc(O)cc(O)c21 [NARINGENIN]
- IC50 [3]: 45.7 µM

Compound: O=c1cc(-c2ccc(O)cc2)oc2cc(O)cc(O)c12 [APIGENIN]
- IC50 [2]: 0.012 µM
- IC50 [3]: 1.9 µM

- IC50 [1]: 7.6 µM
Compound: COc1ccc(-c2cc(=O)c3c(O)cc(O)cc3o2)cc1O [DIOSMETIN]

Compound: CC(C)(O)CCc1c(-c2ccc(O)cc2O)oc2c3c(cc(O)c2c1=O)OC(C)(C)C=C3 [MORUSINOL]
- IC50 [5]: 1.7 µM
- Ki [2]: 3.1 µM

Reference: ChEMBL document CHEMBL3045386, “Flavonoids as lead compounds modulating the enzyme targets in Alzheimers disease” (Med Chem Res, 2013)
